# Test results as given in patent US12379386B2, “Antibodies to 25-hydroxyvitamin D2 and D3 for detecting total 25-hydroxyvitamin D” (Siemens Healthcare Diagnostics Inc., priority 2011, dated 2025).
# Values joined by “and” are separate entries in the source; they are usually repeats but may differ in a detail not shown here. Identical values can stand only once.
# Columns and labels:
# [1] = tested on: anti 25-hydroxy Vitamin D monoclonal antibody labeled with acridinium ester (monoclonal antibody 10H9); assay: Cross-reactivity in ADVIA Centaur Vitamin D Total assay; format: binding, mouse
# Description: Biological sample is added to a reaction cuvette followed by displacement buffer and allowed to react for 4.5 minutes. Monoclonal antibody conjugated to acridinium ester is added and allowed to react for 5.5 minutes to bind 25-hydroxyvitamin D in the sample. […] The reaction cuvette is washed, and acid and base reagents are added to initiate the chemiluminescent reaction. The time-to-result is 18 minutes. An inverse relationship exists between the amount of 25-hydroxyvitamin D in the patient sample and the amount of relative light units (RLUs) detected by the system.
# Assay: The ADVIA Centaur Vitamin D Total assay is a one-pass, 18-minute antibody competitive immunoassay that uses an antifluorescein-labeled monoclonal antibody covalently bound to paramagnetic particles (PMPs), one monoclonal antibody labeled with acridinium ester (AE), and a vitamin D analog labeled with fluorescein (FIG. 8). The Vitamin D Total assay requires 20 μL of sample volume for a single determination. The time-to-first-result is 18 minutes and the throughput is 240 tests/hour.
# Briefly, the first step of the sequential step hapten/antibody competitive immunoassay using chemiluminescent technology begins with the analyzer dispensing 20 μL of biological sample into a cuvette followed by addition of 200 μl of displacement buffer (50 mM HEPES, 150 mM NaCl, 0.09% sodium azide, pH=7.5) containing 8-anilino-1-naphthalenesulfonic acid ammonium salt (Sigma-aldrich, St. Louis, MO) and ethylene glycol (Sigma-aldrich, St. Louis, MO) and incubation for 4.5 minutes at 37° C. Lite Reagent (50 μL) containing an anti 25-hydroxy Vitamin D monoclonal antibody labeled with acridinium ester (monoclonal antibody 10H9) is added to the mixture and incubated for 5.5 min at 37° C. C22-PEG-BSA-fluorescein conjugate (50 μL) and anti-fluorescein monoclonal antibody coated paramagnetic microparticles (100 μL) are added to the mixture and incubated for 3.75 minutes at 37° C. The fourth step is separation of Solid Phase complex with bound C22-PEG-BSA-fluorescein conjugate and anti 25-hydroxy vitamin D monoclonal antibody labeled with acridinium ester, followed by washing three times to remove any free Lite Reagent. Last is the sequential dispensing of 300 μL each of acid reagent then base reagent to initiate the chemiluminescent reaction. The total incubation time from sample to result is 18 minutes. There is an indirect relationship between the amount of 25-hydroxy vitamin D present in the biological sample and the amount of chemiluminescence quantified as relative light units (RLUs). In the Centaur-based assay, there is an inverse relationship between RLUs emitted by the acridinium ester and the amount of vitamin D because the 25-hydroxyvitamin D released from the carrier protein in the plasma competes with the Vitamin D-BSA-Fluorescein for binding with a limited amount of the acridinium-labeled 10H9 monoclonal antibody. Higher levels of 25(OH)D in the patient sample would lower the amount of the acridinium-MAb-VitD-BSA-Fluorescein complex on the magnetic particles resulting in lower RLUs.
# Cross-reactivity: Five vitamin D derivatives were analyzed using the ADVIA Centaur Vitamin D Total assay. The vitamin D derivatives were spiked into a sample containing 27 ng/mL of vitamin D total. Three replicates of the spiked samples were assayed and the vitamin D total concentration determined.
# BALB/c mice = assay: ELISA of sera from mice immunized with vitamin D-C22 BSA; format: in vivo, mouse; conditions: coat Vit D C22 Lc-BSA 500 ng/mL, individual mice 0-4 in c3-c7
# Description: Experiments were conducted to produce antibodies that could preferentially bind to molecules having structural aspects of the vitamin D-C22 antigenic molecule. These experiments were conducted in accordance with the method of Galfre et al. (Nature, 266:550 (1977)), as modified by Oi and Herzenberg (Selected Methods in Cellular Immunology (1980)). Initially, BALB/c mice were immunized with vitamin D-C22 BSA emulsified in Freund's Complete adjuvant followed by a secondary immunization using Freund's Incomplete adjuvant. Sera of immunized mice were collected two weeks after the secondary immunization.
# Collected sera were tested for antigen reactivity by ELISA as follows: microtiter plates coated with vitamin D-C22 BSA were incubated with mouse antisera, diluted in dilution buffer, for one hour. Plates were washed and a secondary antibody (goat-anti-mouse IgG) conjugated to horseradish peroxidase (HRPO) in dilution buffer was added and incubated for 30 minutes. Plates were washed and the colorimetric substrate 3,3′,5,5′-tetramethylbenzidine (TMB) was added. The generated color was stopped using 1N sulfuric acid and the optical density was measured at 450 nm.
# [2] = crossreactant 100 ng/mL spiked, expected (endogenous) vitamin D total 27 ng/mL
molecule,measurement,setting,value
C=C1CC[C@@H](O)C/C1=C/C=C1\CCC[C@]2(C)[C@@H]([C@H](C)CCCC(C)(C)O)CC[C@@H]12 [3-epi-25(OH)D3],Cross-reactivity (in words),[1],very low cross-reactivity
same,Cross-reactivity,[1]; [2],0.0%
"C=C1CC[C@H](O)C/C1=C/C=C1\CCC[C@]2(C)[C@@H]([C@H](C)/C=C/[C@H](C)C(C)(C)O)CC[C@@H]12 [25-(OH)-Vit D2, 25-hydroxyvitamin D2]",Cross-reactivity,[1]; at 50 ng/mL,105%
same,Cross-reactivity,"[1]; crossreactant 30 ng/mL spiked, expected (endogenous) vitamin D total 27 ng/mL",102%
"C=C1CC[C@H](O)C/C1=C/C=C1\CCC[C@]2(C)[C@@H]([C@H](C)CCCC(C)(C)O)CC[C@@H]12 [25-(OH)-Vit D3, 25-hydroxyvitamin D3]",Cross-reactivity,"[1]; crossreactant 27 ng/mL, expected (endogenous) vitamin D total 0 ng/mL",100%
C=C1CC[C@H](O)C/C1=C/C=C1\CCC[C@]2(C)[C@@H]([C@H](C)/C=C/[C@H](C)C(C)C)CC[C@@H]12 [Vitamin D2],Cross-reactivity (in words),[1],very low cross-reactivity
same,Cross-reactivity,[1]; [2],0.04%
C=C1CC[C@H](O)C/C1=C/C=C1\CCC[C@]2(C)[C@@H]([C@H](C)CCCC(C)C)CC[C@@H]12 [Vitamin D3],Cross-reactivity (in words),[1],very low cross-reactivity
same,Cross-reactivity,[1]; [2],0.04%
vitamin D-C22 diaminobutane-suberoyl-BSA [Vit D C22],optical density at 450 nm,BALB/c mice; serum dilution 1:100,3.747 and 3.687 and 3.625 and 3.700 and 3.652
same,optical density at 450 nm,BALB/c mice; serum dilution 1:200,3.750 and 3.693 and 3.649 and 3.663 and 3.634
same,optical density at 450 nm,BALB/c mice; serum dilution 1:400,3.602 and 3.640 and 3.633 (2×) and 3.441
same,optical density at 450 nm,BALB/c mice; serum dilution 1:800,3.634 and 3.731 and 3.603 and 3.708 and 3.696
same,optical density at 450 nm,BALB/c mice; serum dilution 1:1600,3.578 and 3.605 and 3.532 and 3.638 and 3.687
same,optical density at 450 nm,BALB/c mice; serum dilution 1:3200,3.534 and 3.508 and 3.171 and 3.454 and 3.608
same,optical density at 450 nm,BALB/c mice; serum dilution 1:6400,3.177 and 3.133 and 2.533 and 3.057 and 3.473
same,optical density at 450 nm,BALB/c mice; serum dilution 1:12800,2.449 and 2.406 and 1.731 and 2.325 and 3.042
